Measured values taken from the NIST ThermoML archive (doi:10.1016/j.jct.2013.05.037).

Legend:
[1] = mn = molality of the nth substance listed, in mol/kg; details: for surface tension liquid-gas: Pendant drop shape; for viscosity / speed of sound / mass density: 101 kPa, Liquid; for viscosity: Capillary tube (Ostwald / Ubbelohde) method; for speed of sound: Sing-around technique in a fixed-path interferometer; for mass density: Vibrating tube method
[2] = for surface tension liquid-gas: Pendant drop shape; for viscosity / mass density: 101.33 kPa, Liquid; for viscosity: Capillary tube (Ostwald / Ubbelohde) method; for mass density: Vibrating tube method

O [water] + NCC(=O)O
[1], m2 = 0
Details	surface tension liquid-gas [mN/m]
293.15 K	72.75
298.15 K	71.97
303.15 K	71.18
308.15 K	70.38

O [water] + C[C@H](N)C(=O)O
[1], m2 = 0
Details	surface tension liquid-gas [mN/m]
293.15 K	72.75
298.15 K	71.97
303.15 K	71.18
308.15 K	70.38

CCCCCCCC[N+](C)(CCCCCCCC)CCCCCCCC.[Cl-] [N-methyl-N,N-dioctyl-1-octanaminium chloride] + O
[1], m1 = 0.002
Details	mass density [kg/m3]	speed of sound [m/s]	surface tension liquid-gas [mN/m]	viscosity [mPa·s]
293.15 K	998.54	1483.4	29.98	1.043
298.15 K	997.375	1497.3	29.17	0.9291
303.15 K	995.978	1510.7	28.93	0.8195
308.15 K	994.348	1520.2	28.19	0.7465

O [water]
[2]
Details	mass density [kg/m3]	surface tension liquid-gas [mN/m]	viscosity [mPa·s]
293.15 K	998.587	72.75	1.002
298.15 K	997.425	71.97	0.8937
303.15 K	996.04	71.18	0.8001
308.15 K	994.425	70.38	0.7225

CCCCCCCCCCCCCCCC[n+]1ccccc1.[Cl-] [cetylpyridinium chloride] + O
[1], m1 = 0.002
Details	mass density [kg/m3]	speed of sound [m/s]	surface tension liquid-gas [mN/m]	viscosity [mPa·s]
293.15 K	998.567	1483.1	41.75	1.004
298.15 K	997.407	1497.2	41.6	0.9033
303.15 K	996.012	1509.4	41.57	0.8137
308.15 K	994.387	1519.8	41.35	0.7557

NCC(=O)O [2-aminoacetic acid] + O
surface tension liquid-gas [mN/m], [1]
Details	m1 = 0.0502	m1 = 0.0755	m1 = 0.1007	m1 = 0.1261	m1 = 0.1514
293.15 K	72.83	72.89	72.77	72.66	72.54
298.15 K	72.09	72.14	72.03	71.88	71.79
303.15 K	71.29	71.35	71.24	70.95	70.84
308.15 K	70.49	70.55	70.6	70.66	70.71

C[C@H](N)C(=O)O [(S)-2-aminopropanoic acid] + O
surface tension liquid-gas [mN/m], [1]
Details	m1 = 0.0503	m1 = 0.0755	m1 = 0.1009	m1 = 0.1263	m1 = 0.1518
293.15 K	72.86	72.91	72.78	72.66	72.53
298.15 K	72.07	72.12	72	71.88	71.76
303.15 K	71.28	71.33	71.38	71.43	71.48
308.15 K	70.46	70.53	70.58	70.63	70.68

N[C@@H](Cc1ccccc1)C(=O)O [L-phenylalanine] + O
surface tension liquid-gas [mN/m], [1]
Details	m1 = 0.0505	m1 = 0.0759	m1 = 0.1015	m1 = 0.1273	m1 = 0.1532
293.15 K	72.38	71.94	70.99	70.56	70.14
298.15 K	71.09	70.66	69.74	68.37	66.91
303.15 K	70.83	69.91	68.53	66.61	64.53
308.15 K	70.03	68.98	66.59	65.22	63.35

O [water] + N[C@@H](Cc1ccccc1)C(=O)O
[1], m2 = 0
Details	surface tension liquid-gas [mN/m]
293.15 K	72.75
298.15 K	71.97
303.15 K	71.18
308.15 K	70.38
